Source: publication PMC10666768, “Optimized peptide nanofibrils as efficient transduction enhancers for in vitro and ex vivo gene transfer” (Frontiers in Immunology, 2023)
“Also recorded” adds a separate entry of the source. Peptide text beside a SMILES is read from it.

Experiments:
[1] = system: NF-κB pathway; assay: THP1-Dual cells, NF-κB pathway (SEAP); assay type: cell-based; details: 24 h
Procedure: To analyze if PNFs stimulate an immune response, different PNFs concentrations (5, 10, 30 and 50 µg/ml) and 0.1 µg/ml lipopolysaccharide (LPS, InvivoGen, Cat: tlrl-eklps) as a positive control were incubated with 70,000 THP1-Dual cells, a monocyte cell line that allows the simultaneous analysis of the NF-κB and interferon regulatory factor (IRF) pathway, which are major effectors of the innate immune response ([45]). After 24 h, cellular supernatants were analyzed for the activation of the NF-κB pathway by measuring the activity of secreted alkaline phosphatase (SEAP). Therefore, 20 µl supernatant was mixed with 120 µl Alkaline Phosphatase Blue Microwell Substrate (Sigma Aldrich, Cat: AB0100-1KT). After 10 min, 30 µl Alkaline Phosphatase Stop Solution (Sigma Aldrich, Cat: A5852) was added and adsorption at 620 nm was measured using VersaMax Microplate Reader (Molecular Devices). For analysis of IRF pathway, secreted Gaussia Luciferase was measured. 25 µl supernatant was transferred to a white 96 well microtiter plate and Gaussia substrate (82.6 µg/ml Colenterazine, PJK, Cat: 102172) was automatically added according to manufacturer’s protocol and Luminescence was measured by Orion II Microplate Luminometer (Berthold).

[2] = system: human NK cells; details: 4-day incubation, propidium iodide, three donors
Procedure: NK cells were isolated from buffy coats of healthy donors by standard density-gradient centrifugation, using Ficoll-Paque (VWR, Cat: 17-1440-03) using the RosetteSep™ Human NK Cell Enrichment Cocktail ([sequence] Technologies, Cat: 15065). NK cells were cultured at 1×10^6 cells/ml in NK MACS medium (Miltenyi Biotec, Cat: 130-114-429) with 5% human AB serum (Sigma Aldrich, Cat: H4522-100ML), 500 U/ml IL-2 (Peprotech, Cat: 200-02) and 140 U/ml IL-15 (Peprotech, Cat: 200-15). […] 1.25×10^5 NK cells were seeded per well in a 48-well plate. […] Propidium Iodide (PI) (Miltenyi Biotec, Cat: 130-093-233) staining was used to determine the viability of NK cells.

[3] = system: human T cells; details: trypan blue after 7 days
[4] = Chemical stability of PNFs by HPLC and MALDI-TOF MS; assay type: physicochemical; details: 2 mg/ml PNFs in PBS, RT or 37°C, 10 min, 1 h, 24 h, 10 d; reversed-phase C18 HPLC, UV 214 nm
Procedure: RM-8 and D4 were prepared at 2 mg/ml in PBS and were incubated at room temperature (RT) or 37°C for 10 min, 1 hour, 24 hours, and 10 days. Aliquots (25 µL) of both samples were separated after 10 minutes, 1 hour, 24 hours, and 10 days and centrifuged at 13,000 x g for one minute. Supernatants were diluted with 100 µL 10% acetic acid, whereas the pellets were dissolved in 125 µL 6 M guanidinium chloride. All samples were analyzed in an Agilent 1100 Series HPLC system, using a reversed-phase BioBasicTM 18-HPLC column (Thermo Scientific) of dimensions 2.1 x 100 mm and particle size of 5 µm. Gradient elution was used for elution as follows (RM-8): 0 min/5%B, 1 min/20%B, and 15 min/40%B; and for D4: 0 min/5%B, 1 min/15%B, and 15 min/35/%B), being A, 0. 1% TFA in water, and B, 0.1% TFA in acetonitrile. The flow rate was 0.5 mL/min, and the detection was monitored online by UV absorption at 214 nm. ChemStation (version B.04.03, Agilent) was used for data acquisition and the HPLC system’s control.
Mass spectra were obtained with an Axima Confidence MALDI-TOF mass spectrometer (Shimadzu). Measurements were performed in positive ion reflectron mode. The mass range was 100–10000 Da. For each sample, 20 shots were accumulated per profile (100 profiles per spectra) using a laser power of 42% and a laser frequency of 50 Hz. TOFMix MALDI kit (Shimadzu) was used for external mass calibration. […]

[5] = system: TZM-bl cells
Procedure: To determine the effect of peptides on cellular metabolic activity, MTT (Thiazolyl blue tetrazolium bromide) Cell Growth Assay (Merck, Cat: CT02) and CellTiter-Glo Luminescent Cell Viability Assay (Promega, Cat: G7571) were performed. 10,000 TZM-bl cells or 50,000 Jurkat cells were seeded into 96-well plates and treated with indicated concentrations of peptides. For TZM-bl cells, the supernatants were removed after three days and 100 µl MTT (0.5 mg/ml) was added and incubated for 2.5 hours. For Jurkat cells, supernatants were removed after two days, and cells were incubated with 40 μl MTT (1 mg/ml) for 5 hours. Then the MTT solution was removed, and 100 µl 1:1 DMSO-Ethanol was added. The absorption was measured at 590 nm with baseline-corrected at 650 nm using VersaMax Microplate Reader (Molecular Devices). The CellTiter-Glo assay was performed according to the manufacturing protocol. 100 μl CellTiter-Glo Reagent 1:1 diluted in PBS (Gibco, 14200075) was added to pelleted Jurkat cells for 10 min followed by transferring 50 µl to white microplate, and luminescence was recorded by Orion microplate luminometer (Berthold).
(A) TZM-bl cells were treated […]
with different peptide concentrations. MTT assay was performed three days later. […] The cell viability in % was calculated by normalizing sample values to untreated control which was set to 100 %. […]

## CC[C@H](C)[C@H](NC(=O)[C@H](CCCNC(=N)N)NC(=O)[C@@H](N)CCCNC(=N)N)C(=O)N[C@@H](Cc1ccccc1)C(=O)N[C@H](C(=O)N[C@H](C(=O)N[C@@H](CO)C(=O)N[C@@H](CCSC)C(=O)O)[C@@H](C)CC)[C@@H](C)CC [D4] (H-RRIFIISM-OH)
[1]
  Activation of NF-κB pathway at 50 µg/ml: significant activation of the NF-kB pathway
[2]
  NK cell viability: did not show any impact on cell viability
[3]; four donors
  T cell viability after GALV-RV transduction: neither D4 PNF nor the other transduction enhancers affected T cell viability
[4]
  Chemical stability by HPLC: chemically stable for 10 days; also recorded: single peak with unchanged retention time

## CC[C@H](C)[C@H](NC(=O)[C@H](Cc1ccccc1)NC(=O)[C@@H](NC(=O)[C@@H](NC(=O)[C@@H](N)CCCNC(=N)N)[C@@H](C)O)[C@@H](C)CC)C(=O)N[C@H](C(=O)N[C@@H](CO)C(=O)N[C@@H](CCSC)C(=O)N[C@@H](Cc1ccc(O)cc1)C(=O)N[C@@H](CCCCN)C(=O)O)[C@@H](C)CC [RK-10] (H-RTIFIISMYK-OH)
[5]
  Cytotoxicity, TZM-bl cells: not being cytotoxic

## CC[C@H](C)[C@H](NC(=O)[C@H](Cc1ccccc1)NC(=O)[C@@H](NC(=O)[C@@H](NC(=O)[C@@H](N)CCCNC(=N)N)[C@@H](C)O)[C@@H](C)CC)C(=O)N[C@H](C(=O)N[C@@H](CO)C(=O)N[C@@H](CCSC)C(=O)O)[C@@H](C)CC [RM-8] (H-RTIFIISM-OH)
[2]; 30 µg/ml
  NK cell viability at highest concentration: slightly reduced cell viability
[3]; two donors
  Cytotoxic effect on T cells, GALV-RV transduction: not showing any cytotoxic effect
[4]
  Chemical stability by HPLC: chemically stable over time; also recorded: chemically stable for 10 days
[5]
  Cytotoxicity, TZM-bl cells: not being cytotoxic
